Among the data in a melting point compilation (Tetko et al.; mined from patent text by program, amines drawn as free bases though some values may be those of a salt) are melting point values, retold here.

Each structure is given as a SMILES string.

As usually defined, the melting point is the temperature, or range, at which the solid turns liquid. Regarding `CCOC(=O)c1sc2ccc(O)c(C=Nc3ccc(OC)cc3)c2c1Cl`, the melting point lay within 162 to 163 °C.

In the case of `COC(=O)c1ccc(Cc2cc3cc(C(F)(F)F)ccc3n2S(=O)(=O)c2ccc3c(c2)N(C)CCO3)cc1`, the melting point was 63 °C. The compound `O=C1Nc2ccccc2CN1C1CCN(Cc2ccccc2)CC1` showed a melting point of 204 to 206 °C. `OC1CSC(Oc2ccc(-c3ccco3)cc2)C(O)C1O` (configuration not stated): the melting point was found to be 200 °C. The result for `NC(=O)CCN1CCN(C2Cc3cc(Cl)ccc3Sc3cc(F)ccc32)CC1` (configuration not stated) reads 179 to 182 °C; that for `O=[N+]([O-])c1ccc(OCc2cscn2)cc1`, 175 to 176 °C. The result for `O=C1Nc2ccccc2SC[C@@H]1N1C(=O)c2ccccc2C1=O` reads 202 to 205 °C. The value for `Cc1ccc(C(=O)NCc2ccc3c(c2)C(=O)N(C2CCC(=O)NC2=O)C3=O)cc1` (configuration not stated) was 194 to 196 °C. Turning to `CC1OC(Cc2cccc3c2C(=O)c2ccccc2C3=O)CC(N)C1O` (configuration not stated), the melting point is > 280 °C. The value for `CN(C)c1ccc(N(c2ccc(N(C)C)cc2)C2(c3ccc(N(C)C)cc3)OC(=O)c3cc(N(C)C)ccc32)cc1` (configuration not stated) was 86 to 92 °C.

For the compound `C#CCOc1cc(NC(=O)CC(CC(=O)O)C(F)(F)F)ccc1Cl` (configuration not stated), the melting point lay within 128 to 130 °C. The value for `Cc1cccc(C(=O)N[C@@H](CC(C)C)C(=O)N[C@@H](C(C)C)[C@@H](O)c2c(-c3ccccc3)c2=O)n1` was 98 to 100 °C; that for `CC1(C)CCCC(=Cc2ccc(Cl)cc2)C1(O)Cn1cncn1` (configuration not stated) was 179 °C; that for `CCn1c(=S)sc2c(=N)n(NC(N)=O)cnc21` was 212 °C. The result for `CC(=O)N(C#N)CCCCCCN(C#N)C(C)=O` reads 59 to 61 °C; that for `CCOC(=O)Cc1ccc(NCCNC(=O)C2Cc3ccccc3N2S(=O)(=O)c2ccc(-c3cc(C(F)(F)F)ccc3Cl)cc2)cc1` (configuration not stated), 55 to 63 °C; that for `CC(=S)NCC1CN(c2ccc(-c3csc(Cn4cnnn4)n3)c(F)c2)C(=O)O1` (configuration not stated), 96 to 98 °C. The value for `O=C(O)c1cn(CCF)c2cc(Cl)c(F)cc2c1=O` was 262 to 264 °C.

Take `CC(C)NC1=NS(=O)(=O)c2ccc(S(=O)(=O)c3ccccc3)cc2N1`: the melting point lay in the range of 178 to 180 °C.

With `N#CN1CCSC1=NC1CCc2ccccc21` (configuration not stated), the melting point fell in the range of 90 to 91 °C. Turning to `CCC(c1cc(C(=O)Nc2ccc(-c3ccc(C(=O)NS(C)(=O)=O)cc3C)cc2)ccc1OC)N(C)C` (configuration not stated), the melting point was in the range of 253 to 254 °C. In turn, `O=C1Cc2c(cc3ccccc3c2Br)C(c2ccccc2Cl)N1` (configuration not stated) gave a melting point of 256 to 257 °C. The value for `CC(C)(C)[Si](C)(C)N1C(=O)CC1CC(=O)CC(=O)OCc1ccc([N+](=O)[O-])cc1` (configuration not stated) was 65 to 66.5 °C; that for `CC[C@@H]1C(=O)N(Cc2ccc(OC)cc2OC)[C@H]1CC(=O)O` (relative stereo) was 131 °C. The value for `CC(C)(C)OC(=O)N1CCN(CC(O)COc2ccc(CC#N)cc2)CC1` (configuration not stated) was 98 to 100 °C.

As for `CC(=O)OCCn1cncc1[N+](=O)[O-]`, the melting point lay within 61 to 62 °C. The value for `O=C(Nc1nc(OCc2ccc(F)cc2)ncc1F)Oc1ccccc1` was 129 to 131 °C; that for `Nc1nc(N)nc(-c2ccc(-c3ccccc3)s2)n1` was > 250 °C; that for `COc1cc2c(cc1C(C)=O)CCCC2C` (configuration not stated) was 48 to 50 °C. The result for `O=C(Nc1ccc(C(=O)N2Cc3cccn3Cc3ccccc32)cc1)c1cccc(F)c1F` reads 252 to 258 °C; that for `COc1cc(O)ccc1C=CC(=O)CC(C)=O`, 139 to 142 °C. In turn, `C[Si](C)(C)OC(CCl)(Cn1ccnc1)c1ccc(F)cc1F` (configuration not stated) showed a melting point of 88 to 89 °C.

With `CC1(C)C2CC[C@]1(C)C(=O)C(C(=O)Nc1ccc(Cl)c(Cl)c1)C2=O` (some centres not stated), the melting point was 88 to 90 °C. The result for `CCOCCOC(=O)C1=C(C)N(COCC)C(C)=C(C(=O)OCCOCC)C1c1cccc([N+](=O)[O-])c1` reads 63 to 63.5 °C; that for `CC(=O)Nc1nc(CCc2ccc(N)cc2)c(C(=O)NCc2ccccc2)s1`, 200 to 201 °C; that for `O=CNC[C@H](O)C(=O)OC=O`, 140 to 142 °C. `CC(=O)OCC1OC(n2c(Br)nc3cc(Cl)c(Cl)cc32)C(O)C1O` (configuration not stated) gave a melting point of 85 to 95 °C.

Take `Cc1nc2cccc3n(CCC4CCN(S(=O)(=O)C(F)(F)F)CC4)c(=O)c1n23`: the melting point lay within 169 to 170 °C. The result for `COc1ccc(CCOc2cccc(-c3cccc(C(=O)O)c3)n2)cc1OC` reads 147 to 148 °C; that for `CCOC(=O)CN(C)C(=O)c1ccsc1C(=O)c1ccc(F)cc1`, 127 to 129 °C; that for `COC(=O)CCc1conc1-c1ccc(Cl)cc1`, 56 to 57 °C.

The compound `CCCN(CCC)Cc1coc(-c2ncn3c2CN(C)C(=O)c2sccc2-3)n1` registered a melting point of 110 to 111 °C. The result for `CC1(C)CC(=C(c2ccc(O)cc2)c2ccc(OCCCC(=O)O)cc2)CC(C)(C)C1` reads 203 to 204 °C. In turn, `CN1CCc2c(-c3ccc(S(=O)(=O)N(C)C)cc3)cc3c(c2C1)N(C)C(=O)C3=O` registered a melting point of 232 to 240 °C. As for `CCCC1(C)SC(=NOC(=O)NC)N=C1C` (configuration not stated), the melting point is 66 to 69 °C.

Compound `COc1ccc(C2=NN(C3CCN(S(=O)(=O)c4cccc5c(N(C)C)cccc45)CC3)C(=O)[C@@H]3CC=CC[C@H]23)cc1OC` displayed a melting point of 198 to 200 °C.

`CS(=O)(=O)N1CCC(NC(=O)N(CCCN2CCC(Cc3ccccc3)CC2)c2ccccc2)CC1` showed a melting point of 158 to 160 °C. `CCCc1cc2cccc(C(=O)OCOC(=O)C(C)(C)C)c2n1Cc1ccc(-c2ccccc2-c2nnn[nH]2)cc1` came in with a melting point of 101 to 103 °C.

`COc1c(C)c(C(=O)c2ccc3nc(C)oc(=O)c3c2)n2ccccc12` gave a melting point of 218 °C. Turning to `CCn1nc(Cl)c2ccn(-c3ccc(C)cc3C)c2c1=O`, the melting point is 94 to 95 °C.

Turning to `COC1=C(OC)C(=O)C(CCCCCCCCCCCO)=C(C)C1=O`, the melting point came to 57 °C.

Compound `COC(=O)C1(O)C(=O)Nc2ccc(C(F)(F)F)cc2CC1c1ccc(OC)cc1` (configuration not stated) had a melting point of 196 to 198 °C. In the case of `O=C(O)COc1cc2c(=O)cc(C(=O)O)[nH]c2ccc1=O`, the melting point was > 270 °C. In turn, `CCCCCCC(=O)Nc1cccc2c1C(=O)N(C1(C)CCC(=O)NC1=O)C2=O` (configuration not stated) returned a melting point of 172 to 174 °C.

In turn, `Oc1cc2c(-c3ccc(Cl)cc3)csc2c(Cl)c1Cl` showed a melting point of 174 to 176 °C. The value for `COc1ccc(C=O)cc1OC(=O)c1ccccc1` was 70 to 72 °C; that for `CCCCC[C@@H](CNC(=O)Nc1c(OCC)ccc2c1CCCC2)c1cccc2c1OCO2` was 81.5 to 82.5 °C; that for `O=[N+]([O-])c1ccc2nc(-c3ccco3)[nH]c2c1` was 228 to 229 °C.

In turn, `Oc1ccc(N=C2SCCS2)cc1` registered a melting point of 204 to 208 °C. The result for `BrCc1nc(-c2ccccc2)cc2ccccc12` reads 84 °C; that for `O=C(O)c1cccc2c(Br)c(O)ccc12`, > 225 °C; that for `CCCCCCCCCCCCCCCCC(C(=O)OC)S(C)=O` (configuration not stated), 56 to 57 °C.
